Laboratory results as given in patent US9708314B2, “Heterocyclic amide compound” (NISSAN CHEMICAL INDUSTRIES, LTD., priority 2013, dated 2017).

Legend:
Format in all cases: in vivo
[1] = system: Echinochloa oryzacola Vasing.; assay: Test Example 2: herbicidal activity, application during weed generation in submerged conditions; settings: Eighteenth Table; application herbicide amount 320 g/ha
Procedure, shortened: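 Seeds were sown together in alluvial soil kept under 4 cm of water and grown at 25 °C to 30 °C. Once plants reached the one- to two-leaf stage, the diluted emulsion was applied to the water surface at a predetermined g/ha amount, and effects were rated 0–5 after three weeks.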

Lolium multiflorum Lam. = assay: Test Example 4: herbicidal effect by application to foliage (diluvial soil, plastic box); settings: for K (Lolium multiflorum Lam.) herbicidal effect grade: foliage application
Procedure, shortened: (§1)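 Greenhouse plants (25° C. to 30° C., 14 d, diluvial soil) receive a foliar spray of water-diluted emulsifiable formulation at defined g/ha. Grading after 3 weeks uses a six-step herbicidal-ratio scale, with 4 covering 70% to <90% and 1 covering 5% to <20%.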

[2] = system: Echinochloa crus-galli var. crus-galli; assay: as above; settings: for H (Echinochloa crus-galli var. crus-galli) herbicidal effect grade: foliage application
Procedure, shortened: as §1

Avena fatua = assay: as above; settings: for I (Avena fatua) herbicidal effect grade: foliage application
Procedure, shortened: as §1

Galium spurium = assay: as above; settings: for Q (Galium spurium) herbicidal effect grade: foliage application
Procedure, shortened: as §1

Scirpus juncoides = assay: Test Example 1: herbicidal activity, application before weed generation in submerged conditions; settings: Application herbicide amount 320 g/ha; Seventeenth Table
Procedure, shortened: (§2)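 Water-diluted emulsion formulation is applied onto flood water (4 cm deep) covering alluvial soil on the day weed seeds are sown, after transplanting 2.5 leaf stage rice. Rates are expressed per hectare. Injury or control is graded 0–5 three weeks later.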

Monochoria vaginalis = assay: as above; settings: Application herbicide amount 320 g/ha; Seventeenth Table
Procedure, shortened: as §2

[3] = system: Echinochloa oryzacola Vasing.; assay: as above; settings: Application herbicide amount 320 g/ha; Seventeenth Table
Procedure, shortened: as §2

[4] = system: transplanted Oryza sativa; assay: Test Example 1: effect on crop, application before weed generation in submerged conditions; settings: Application herbicide amount 320 g/ha; Seventeenth Table
Procedure, shortened: as §2

[5] = application to foliage, application herbicide amount 320 g/ha
[6] = Application herbicide amount 320 g/ha

## CCC(CC)c1nnc2c(C(=O)Nc3nnnn3C)ccc(C(F)(F)F)n12 [2-006]
[1]
  A (Echinochloa oryzicola Vasing.) herbicidal ratio grade: 5 (Herbicidal ratio of 90% or more (almost completely withered))
Lolium multiflorum Lam.; [5]
  K: herbicidal effect on Lolium multiflorum Lam.: 1 (Herbicidal ratio of 5% or more and less than 20%)
[2]; [5]
  H: herbicidal effect on Echinochloa crus-galli var. crus-galli: 5 (Herbicidal ratio of 90% or more (almost completely withered))
Avena fatua; [5]
  I: herbicidal effect on Avena fatua: 3 (Herbicidal ratio of 40% or more and less than 70%)
Galium spurium; [5]
  Q: herbicidal effect on Galium spurium: 3 (Herbicidal ratio of 40% or more and less than 70%)
Scirpus juncoides
  B: Scirpus juncoides (herbicidal effect grade): 5 (Herbicidal ratio of 90% or more (almost completely withered))
Monochoria vaginalis
  C: Monochoria vaginalis (herbicidal effect grade): 5 (Herbicidal ratio of 90% or more (almost completely withered))
[3]
  A: Echinochloa oryzicola Vasing. (herbicidal effect grade): 5 (Herbicidal ratio of 90% or more (almost completely withered))
[4]
  a: transplanted Oryza sativa (effect on crop grade): 4 (Herbicidal ratio of 70% or more and less than 90%)

## Cc1nnc(NC(=O)c2ccc(C(F)(F)F)n3c(SCC4OCCO4)nnc23)o1 [1-126]
[1]
  A (Echinochloa oryzicola Vasing.) herbicidal ratio grade: 1 (Herbicidal ratio of 5% or more and less than 20%)
Lolium multiflorum Lam.; [6]
  K (Lolium multiflorum Lam.) herbicidal effect grade: 0 (Herbicidal ratio of 5% or less (almost no effect))
[2]; [6]
  H (Echinochloa crus-galli var. crus-galli) herbicidal effect grade: 5 (Herbicidal ratio of 90% or more (almost completely withered))
Avena fatua; [6]
  I (Avena fatua) herbicidal effect grade: 0 (Herbicidal ratio of 5% or less (almost no effect))
Galium spurium; [6]
  Q (Galium spurium) herbicidal effect grade: 1 (Herbicidal ratio of 5% or more and less than 20%)
Scirpus juncoides
  B: Scirpus juncoides (herbicidal effect grade): 4 (Herbicidal ratio of 70% or more and less than 90%)
Monochoria vaginalis
  C: Monochoria vaginalis (herbicidal effect grade): 2 (Herbicidal ratio of 20% or more and less than 40%)
[3]
  A: Echinochloa oryzicola Vasing. (herbicidal effect grade): 3 (Herbicidal ratio of 40% or more and less than 70%)
[4]
  a: transplanted Oryza sativa (effect on crop grade): 0 (Herbicidal ratio of 5% or less (almost no effect))

## COCCOCc1nnc2c(C(=O)Nc3nnco3)ccc(C(F)(F)F)n12 [1-107]
[1]
  A (Echinochloa oryzicola Vasing.) herbicidal ratio grade: 5 (Herbicidal ratio of 90% or more (almost completely withered))
Lolium multiflorum Lam.; [6]
  K (Lolium multiflorum Lam.) herbicidal effect grade: 3 (Herbicidal ratio of 40% or more and less than 70%)
[2]; [6]
  H (Echinochloa crus-galli var. crus-galli) herbicidal effect grade: 5 (Herbicidal ratio of 90% or more (almost completely withered))
Avena fatua; [6]
  I (Avena fatua) herbicidal effect grade: 4 (Herbicidal ratio of 70% or more and less than 90%)
Galium spurium; [6]
  Q (Galium spurium) herbicidal effect grade: 4 (Herbicidal ratio of 70% or more and less than 90%)
Scirpus juncoides
  B: Scirpus juncoides (herbicidal effect grade): 4 (Herbicidal ratio of 70% or more and less than 90%)
Monochoria vaginalis
  C: Monochoria vaginalis (herbicidal effect grade): 5 (Herbicidal ratio of 90% or more (almost completely withered))
[3]
  A: Echinochloa oryzicola Vasing. (herbicidal effect grade): 5 (Herbicidal ratio of 90% or more (almost completely withered))
[4]
  a: transplanted Oryza sativa (effect on crop grade): 2 (Herbicidal ratio of 20% or more and less than 40%)

## CN(c1nnc2c(C(=O)Nc3nnco3)ccc(C(F)(F)F)n12)C1CCCCC1 [1-123]
[1]
  A (Echinochloa oryzicola Vasing.) herbicidal ratio grade: 3 (Herbicidal ratio of 40% or more and less than 70%)
Lolium multiflorum Lam.; [6]
  K (Lolium multiflorum Lam.) herbicidal effect grade: 0 (Herbicidal ratio of 5% or less (almost no effect))
[2]; [6]
  H (Echinochloa crus-galli var. crus-galli) herbicidal effect grade: 4 (Herbicidal ratio of 70% or more and less than 90%)
Avena fatua; [6]
  I (Avena fatua) herbicidal effect grade: 1 (Herbicidal ratio of 5% or more and less than 20%)
Galium spurium; [6]
  Q (Galium spurium) herbicidal effect grade: 2 (Herbicidal ratio of 20% or more and less than 40%)
Scirpus juncoides
  B: Scirpus juncoides (herbicidal effect grade): 4 (Herbicidal ratio of 70% or more and less than 90%)
Monochoria vaginalis
  C: Monochoria vaginalis (herbicidal effect grade): 4 (Herbicidal ratio of 70% or more and less than 90%)
[3]
  A: Echinochloa oryzicola Vasing. (herbicidal effect grade): 5 (Herbicidal ratio of 90% or more (almost completely withered))
[4]
  a: transplanted Oryza sativa (effect on crop grade): 1 (Herbicidal ratio of 5% or more and less than 20%)

## CCN(CC)c1nnc2c(C(=O)Nc3nnc(C)o3)ccc(C(F)(F)F)n12 [1-135]
[1]
  A (Echinochloa oryzicola Vasing.) herbicidal ratio grade: 2 (Herbicidal ratio of 20% or more and less than 40%)
Lolium multiflorum Lam.; [6]
  K (Lolium multiflorum Lam.) herbicidal effect grade: 1 (Herbicidal ratio of 5% or more and less than 20%)
[2]; [6]
  H (Echinochloa crus-galli var. crus-galli) herbicidal effect grade: 4 (Herbicidal ratio of 70% or more and less than 90%)
Avena fatua; [6]
  I (Avena fatua) herbicidal effect grade: 1 (Herbicidal ratio of 5% or more and less than 20%)
Galium spurium; [6]
  Q (Galium spurium) herbicidal effect grade: 0 (Herbicidal ratio of 5% or less (almost no effect))
Scirpus juncoides
  B: Scirpus juncoides (herbicidal effect grade): 4 (Herbicidal ratio of 70% or more and less than 90%)
Monochoria vaginalis
  C: Monochoria vaginalis (herbicidal effect grade): 4 (Herbicidal ratio of 70% or more and less than 90%)
[3]
  A: Echinochloa oryzicola Vasing. (herbicidal effect grade): 3 (Herbicidal ratio of 40% or more and less than 70%)
[4]
  a: transplanted Oryza sativa (effect on crop grade): 1 (Herbicidal ratio of 5% or more and less than 20%)

## CC[S+]([O-])c1nnc2c(C(=O)Nc3nnnn3C)ccc(C(F)(F)F)n12 (stereo not drawn) [2-031]
[1]
  A (Echinochloa oryzicola Vasing.) herbicidal ratio grade: 5 (Herbicidal ratio of 90% or more (almost completely withered))
Lolium multiflorum Lam.; 320 g/ha
  K (Lolium multiflorum Lam.) herbicidal effect grade: 5 (Herbicidal ratio of 90% or more (almost completely withered))
[2]; 320 g/ha
  H (Echinochloa crus-galli var. crus-galli) herbicidal effect grade: 5 (Herbicidal ratio of 90% or more (almost completely withered))
Avena fatua; 320 g/ha
  I (Avena fatua) herbicidal effect grade: 5 (Herbicidal ratio of 90% or more (almost completely withered))
Galium spurium; 320 g/ha
  Q (Galium spurium) herbicidal effect grade: 5 (Herbicidal ratio of 90% or more (almost completely withered))
Scirpus juncoides
  B: Scirpus juncoides (herbicidal effect grade): 5 (Herbicidal ratio of 90% or more (almost completely withered))
Monochoria vaginalis
  C: Monochoria vaginalis (herbicidal effect grade): 5 (Herbicidal ratio of 90% or more (almost completely withered))
[3]
  A: Echinochloa oryzicola Vasing. (herbicidal effect grade): 5 (Herbicidal ratio of 90% or more (almost completely withered))
[4]
  a: transplanted Oryza sativa (effect on crop grade): 5 (Herbicidal ratio of 90% or more (almost completely withered))
